Experimental data as given in PubChem BioAssay (NCI).
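Values below derive from 48-hour exposures of cells grown in 96-well plates, with endpoints linearly interpolated between the two concentrations bracketing the appropriate inhibition level. GI50 marks 50% less growth. Definition used: TGI = concentration required for complete inhibition of growth.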

Columns and labels:
Assay in all cases: NCI-60 cell line screen, 48 h
A549 NSCLC = test system: A549 NSCLC
EKVX NSCLC = test system: EKVX NSCLC
HS 578T breast = test system: HS 578T breast
HT29 colon = test system: HT29 colon
NCI-H522 lung = test system: NCI-H522 lung
NCI/ADR-RES ovarian = test system: NCI/ADR-RES ovarian
OVCAR-3 ovarian = test system: OVCAR-3 ovarian
RPMI-8226 leukemia = test system: RPMI-8226 leukemia
SF-268 CNS = test system: SF-268 CNS
SF-295 CNS = test system: SF-295 CNS
TK-10 renal = test system: TK-10 renal
U251 CNS = test system: U251 CNS
UACC-62 melanoma = test system: UACC-62 melanoma

Structure (SMILES)	TGI (A549 NSCLC) [µM]	TGI (EKVX NSCLC) [µM]	TGI (HS 578T breast) [µM]	TGI (HT29 colon) [µM]	TGI (NCI-H522 lung) [µM]	TGI (NCI/ADR-RES ovarian) [µM]	TGI (OVCAR-3 ovarian) [µM]	TGI (RPMI-8226 leukemia) [µM]	TGI (SF-268 CNS) [µM]	TGI (SF-295 CNS) [µM]	TGI (TK-10 renal) [µM]	TGI (U251 CNS) [µM]	TGI (UACC-62 melanoma) [µM]	GI50 (OVCAR-3 ovarian) [µM]	GI50 (U251 CNS) [µM]
CC(C)(C)C1CCC2c3c([nH]c4ccccc34)C3C(=O)N(c4ccc5c(c4)C(=O)c4ccccc4C5=O)C(=O)C3C2C1 (stereo unspecified)	> 100	> 100	> 100	> 100	> 100	> 100	> 100	> 100	> 100	> 100	> 100	> 100	> 100		
COc1cc2c(cc1OC)C(=O)N(NC1=NCCN1)C2=O	> 100	> 100	> 100	> 100	> 100	> 100	> 100	> 100	> 100	> 100	> 100	> 100	> 100		
COc1ccccc1CNC(=O)[C@H](Cc1ccc(O)cn1)NC(C)=O	> 100	> 100	> 100	> 100	> 100	> 100	> 100	> 100	> 100	> 100	> 100	> 100	> 100		
COC(=O)c1ccc(NCc2cc(O)ccc2O)cc1	39.2	37.1	18.5	50.7	2.06	36.9	27.6	34.7	31.5	35	31.6	24.5	27		
C/C=C/[C@H](O[Si](C)(C)C(C)(C)C)[C@@H](O)/C=C/C(=O)OCC	> 100	45.4	79.5	39.2	30.3	76.8	47.6	12.1	53.7	46	75.6	35.5	38.8		
COCCOC(=O)C(C)=[N+]=[N-]		> 100	> 100	> 100	> 100	> 100	> 100	> 100	> 100	> 100	> 100	> 100	> 100		
O=C1c2ccccc2C(=O)c2oc(Br)cc21	1.03	4.07	0.732	3.68	3.04	5.44	5.67	6.99	4.22	1.03	6.15	2.64	1.84		
Cc1ccc2c(=O)cc(-c3sc4ccccc4c3C)[nH]c2n1	85.6	88.2	51.7	78.1	42.3	47.6	50.1	38.1	69.7	52.1	> 100	> 100	36.3	19.7	38.7
CCCC[C@H]1CCN2C[C@@H](O)[C@@H](O)[C@H]2[C@@H]1O	> 100	> 100	> 100	> 100	> 100	> 100	> 100	> 100	> 100	> 100	> 100	> 100	> 100		
CC[C@@H]1/C=C/C=C/C[C@H](C)[C@@H](O)[C@](C)(O)C(=O)[C@H](C)[C@@H](O)[C@H](C)C(=O)[C@H](C)[C@@H](O)[C@H](C)/C=C/C(=O)O[C@H]2[C@@H](C)[C@@H](CC1)O[C@@]1(CC[C@@H](C)[C@@H](CC(C)O)O1)[C@@H]2C (stereo partly specified)	9.1	10.8	> 25.1	4.19	3.89	5.48	3.95	10.3	12.7	9.05	12.3	11.1	6.57		
O=c1[nH]n(Cc2ccccc2Cl)c2ccccc12	> 100	> 100	> 100	> 100	> 100	> 100	> 100	> 100	> 100		> 100	> 100	> 100		
O=c1oc2ccc([N+](=O)[O-])cc2c(Nc2ccc3c(c2)S(=O)(=O)c2ccccc2O3)c1[N+](=O)[O-]	> 100	> 100	> 100	> 100	> 100	> 100	> 100	> 100	> 100	> 100	> 100	> 100	> 100		
CC(C)C(NC(=O)C(Cc1ccccc1)NC(=O)[C@H]1CCC[C@H]1NC(=O)C(N)Cc1ccc(O)cc1)C(N)=O (stereo partly specified)	> 100	> 100	> 100	> 100	> 100	> 100	> 100	> 100	> 100	> 100	> 100	> 100	> 100		
O=c1[nH]c2c(c(=O)[nH]1)SSC2	> 63.5	> 81.4	56	40	38.5	8.76	38	6.83	13.6	36.6	29.9	30.1	9.14		
O=C1Oc2cc3c(c4cccc1c24)O[C@H](c1ccccc1)[C@@H](c1ccccc1)[C@@H]3c1ccc(Cl)cc1		> 100	> 100	> 100	> 100	> 100	> 100	> 100	> 100	> 100	> 100	50.1	> 100		
CC1(C)[C@H]2Cc3cc(-c4cc5c(cn4)[C@@H]4C[C@H]([C@@H]5[C@@H]5c6cc(-c7cc8c(cn7)[C@@H]7C[C@H](C8)C7(C)C)ncc6[C@@H]6C[C@H]5C6(C)C)C4(C)C)ncc3[C@@H]1C2	> 100	> 100	> 100	> 100	> 100	> 100	> 100	> 100	> 100	> 100		> 100	> 100		
